Drawing on patent publication US8586579B2, “Anellated pyridine compounds” (Hoffmann-La Roche Inc., priority 2010, dated 2013), this text covers Ki for 19 molecules.

Where two headings read alike, the source gives them in different places.

One assay concerns the target human D3 receptor (Homo sapiens (Human), UniProt P35462). The assay is described as follows: Radioligand binding assay, [3H]-spiperone, human D3 receptor. The following applies: membranes of HEK293 EBNA cells expressing human D3; 0.5 nM [3H]-spiperone. How it is done: (§1) HEK293 EBNA cells were transiently transfected with expression plasmids encoding for the human D2 or D3 or for the human 5-HT2A receptor, respectively. The cells were harvested 48 h post-transfection, washed three times with cold PBS and stored at −80° C. prior to use. The pellet was suspended in cold 50 mM Tris-HCl buffer comprising 10 mM EDTA (pH 7.4) and was homogenized with a Polytron (Kinematica AG, Basel, Switzerland) for 20-30 sec at 12.000 rpm. After centrifugation at 48.000×g for 30 min at 4° C., the pellet was resuspended in cold 10 mM Tris-HCl buffer comprising 0.1 mM EDTA (pH 7.4), homogenized, and centrifuged as above. This pellet was further resuspended in a smaller volume of ice cold 10 mM Tris-HCl buffer comprising 0.1 mM EDTA (pH 7.4) and homogenized with a Polytron for 20-30 sec at 12.000 rpm. The protein content of this homogenate was determined with the Bio-Rad (Bradford) Protein Assay (Biorad Laboratories GmbH, München, Germany) according to the instructions of the manufacturer using gamma globulin as the standard. This homogenate was stored at −80° C. in aliquots and thawed immediately prior to use.
(§2) Aliquots of membrane preparations were thawed at RT, resuspended in assay buffer (D2, D3: 50 mM Tris-HCl, 120 mM NaCl, 5 mM MgCl2, 1 mM EDTA, 5 mM KCl, 1.5 mM CaCl2, pH=7.4; 5-HT2A: 50 mM Tris-HCl, 10 mM MgCl2, 1 mM EGTA, pH=7.4), homogenized with a Polytron for 20-30 sec at 12.000 rpm and adjusted to a final concentration of approximately 7.5 μg protein/well (D2, D3) and 15 μg protein/well (5-HT2A), respectively.
(§3) The binding affinity (Ki) of the compounds was determined using radioligand binding. Membranes were incubated in a total volume of 200 μl with a fixed concentration of radioligand (final concentration approximately 0.7 nM [^3H]-spiperone for D2, 0.5 nM [^3H]-spiperone for D3, and 1.1 nM [^3H]-ketanserin for 5-HT2A) and ten concentrations of test compound in ranging between 10 μM-0.1 nM for 1 h at RT. […] The nonspecific binding was determined with equally composed reaction mixtures in the presence of 10 μM unlabelled spiperone. Per well 45 μl of Microscint 40 (Perkin Elmer, Schwerzenbach, Switzerland) was added, plates for sealed, shaken for 20 min and counted for 3 min on a Topcount Microplate Scintillation Counter (Can berra Packard SA, Zürich, Switzerland) with quenching correction.
(§4) The CPM value for each duplicate of a concentration of competing compound was averaged (y1), then the % specific binding was calculated according to the equation (((y1−non-specific)/(total binding−non-specific))×100). Graphs were plotted with the % specific binding using XLfit, a curve fitting program that iteratively plots the data using Levenberg-Marquardt algorithm. The single site competition analysis equation used was y=A+((B−A)/(1+((x/C)D))), where y is the % specific binding, A is the minimum y, B is the maximum y, C is the IC50, x is the log 10 of the concentration of the competing compound and D is the slope of the curve (the Hill Coefficient). […] The affinity constant (K) was calculated using the Cheng-Prusoff equation Ki=(IC50/1+([L]/Kd), where [L] is the concentration of radioligand and Kd is the dissociation constant of the radioligand at the receptor as determined by the saturation isotherm.

Another assay has as its target human 5-HT2A receptor (Homo sapiens (Human), UniProt P28223). Nature of the assay: Radioligand binding assay, [3H]-ketanserin, human 5-HT2A receptor. The method, then: as §1, §2, §3, §4
Another assay deals with human D2 receptor (Homo sapiens (Human), UniProt P14416). Nature of the assay: Radioligand binding assay, [3H]-spiperone, human D2 receptor. The following applies: membranes of HEK293 EBNA cells expressing human D2; 0.7 nM [3H]-spiperone. How it is done: as §1, §2, §3
as §4, with “algorithm.” for “algorithm. The single site competition analysis equation used was y=A+((B−A)/(1+((x/C)D))), where y is the % specific binding, A is the minimum y, B is the maximum y, C is the IC50, x is the log 10 of the concentration of the competing compound and D is the slope of the curve (the Hill Coefficient).”

Setting [1] is: membranes of HEK293 EBNA cells expressing human 5-HT2A, 1.1 nM [3H]-ketanserin.

human 5-HT2A receptor, sequence (P28223 whole entry): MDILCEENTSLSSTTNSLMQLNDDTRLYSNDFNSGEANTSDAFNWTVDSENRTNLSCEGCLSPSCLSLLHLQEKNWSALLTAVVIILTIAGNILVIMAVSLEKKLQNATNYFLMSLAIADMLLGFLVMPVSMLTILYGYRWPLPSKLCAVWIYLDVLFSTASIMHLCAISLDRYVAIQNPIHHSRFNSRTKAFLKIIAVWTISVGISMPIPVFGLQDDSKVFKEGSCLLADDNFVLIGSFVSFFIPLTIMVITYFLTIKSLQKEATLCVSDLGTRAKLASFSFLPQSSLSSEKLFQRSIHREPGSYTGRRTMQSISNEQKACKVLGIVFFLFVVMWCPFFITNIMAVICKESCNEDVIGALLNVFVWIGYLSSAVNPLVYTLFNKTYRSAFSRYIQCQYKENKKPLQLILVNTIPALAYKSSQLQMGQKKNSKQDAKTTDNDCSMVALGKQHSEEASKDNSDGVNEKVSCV
human D2 receptor, sequence (P14416 whole entry): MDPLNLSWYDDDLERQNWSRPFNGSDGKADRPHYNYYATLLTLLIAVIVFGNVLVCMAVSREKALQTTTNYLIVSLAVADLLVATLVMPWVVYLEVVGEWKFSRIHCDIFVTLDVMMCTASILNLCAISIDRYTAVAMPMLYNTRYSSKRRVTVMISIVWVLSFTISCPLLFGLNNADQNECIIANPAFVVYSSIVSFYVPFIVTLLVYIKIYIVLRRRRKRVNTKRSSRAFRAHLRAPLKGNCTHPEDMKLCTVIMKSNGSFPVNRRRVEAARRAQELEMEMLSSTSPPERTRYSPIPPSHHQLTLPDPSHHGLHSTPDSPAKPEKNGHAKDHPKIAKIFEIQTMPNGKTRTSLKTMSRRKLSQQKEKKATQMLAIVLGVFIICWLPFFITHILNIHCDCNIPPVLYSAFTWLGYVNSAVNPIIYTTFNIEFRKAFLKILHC
human D3 receptor, sequence (P35462 whole entry): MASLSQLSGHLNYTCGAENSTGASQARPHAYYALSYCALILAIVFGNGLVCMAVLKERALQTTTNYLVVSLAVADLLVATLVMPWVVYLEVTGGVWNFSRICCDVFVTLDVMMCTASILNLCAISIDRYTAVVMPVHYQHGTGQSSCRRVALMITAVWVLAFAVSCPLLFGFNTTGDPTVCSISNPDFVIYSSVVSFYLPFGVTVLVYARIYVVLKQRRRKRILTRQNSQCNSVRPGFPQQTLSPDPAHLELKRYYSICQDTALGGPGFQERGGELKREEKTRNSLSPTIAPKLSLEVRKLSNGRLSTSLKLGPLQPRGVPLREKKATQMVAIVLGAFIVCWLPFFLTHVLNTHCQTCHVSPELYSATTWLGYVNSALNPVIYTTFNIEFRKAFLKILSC

What is called Ki is a dissociation constant, usually derived from enzyme kinetics or from competition with a known ligand. Consider `CS(=O)(=O)N[C@H]1CC[C@H](CCN2CCN(c3nccc4sccc34)CC2)CC1` [Example 30, N-{trans-4-[2-(4-Thieno[3,2-c]pyridin-4-yl-piperazin-1-yl)-ethyl]-cyclohexyl}-methanesulfonamide], for which the Ki at human D3 receptor was determined as 4.3 nM; at human 5-HT2A receptor (setting [1]), 2.9 nM; on human D2 receptor it was 265 nM.
On to `CO[C@H]1CC[C@H](CC(=O)N[C@H]2CC[C@H](CCN3CCN(c4nccc5occc45)CC3)CC2)CC1` [Example 9, N-{trans-4-[2-(4-Furo[3,2-c]pyridin-4-yl-piperazin-1-yl)-ethyl]-cyclohexyl}-2-(trans-4-methoxy-cyclohexyl)-acetamide], for which the figures for the Ki at human D3 receptor, on human 5-HT2A receptor (setting [1]) and on human D2 receptor were 32.7 nM, 5.6 nM and 1460 nM, respectively.
Regarding `O=C(CC1CCOCC1)N[C@H]1CC[C@H](CCN2CCN(c3nccc4sccc34)CC2)CC1` [Example 23, 2-(Tetrahydro-pyran-4-yl)-N-{trans-4-[2-(4-thieno[3,2-c]pyridin-4-yl-piperazin-1-yl)-ethyl]-cyclohexyl}-acetamide], the results for the Ki on human D3 receptor, at human 5-HT2A receptor (setting [1]) and at human D2 receptor were 2.7 nM, 3 nM and 144 nM, respectively.
The like results for `O=C(N[C@H]1CC[C@H](CCN2CCN(c3nccc4occc34)CC2)CC1)C1CCOCC1` [Example 11, Tetrahydro-pyran-4-carboxylic acid {trans-4-[2-(4-furo[3,2-c]pyridin-4-yl-piperazin-1-yl)-ethyl]-cyclohexyl}-amide] were, in that order, 55.7 nM, 2.9 nM and 515 nM.
For `CCC(=O)N[C@H]1CC[C@H](CCN2CCN(c3nccc4sccc34)CC2)CC1` [Example 18, N-{trans-4-[2-(4-Thieno[3,2-c]pyridin-4-yl-piperazin-1-yl)-ethyl]-cyclohexyl}-propionamide], the Ki on human D3 receptor is 1.6 nM; on human 5-HT2A receptor (setting [1]) it was 2.6 nM; at human D2 receptor it was 163 nM.
Taken in the same sequence, the figures for `CO[C@@H]1CC[C@@H](CC(=O)N[C@H]2CC[C@H](CCN3CCN(c4nccc5sccc45)CC3)CC2)C1` (racemic) [Example 21, 2-(trans-3-Methoxy-cyclopentyl)-N-{trans-4-[2-(4-thieno[3,2-c]pyridin-4-yl-piperazin-1-yl)-ethyl]-cyclohexyl}-acetamide] were 3.6 nM, 3.7 nM and 271 nM.
Regarding `O=C(C[C@H]1CC[C@H](O)CC1)N[C@H]1CC[C@H](CCN2CCN(c3nccc4occc34)CC2)CC1` [Example 3, N-{trans-4-[2-(4-Furo[3,2-c]pyridin-4-yl-piperazin-1-yl)-ethyl]-cyclohexyl}-2-(trans-4-hydroxy-cyclohexyl)-acetamide], the Ki on human D3 receptor worked out at 54.6 nM; on human 5-HT2A receptor, 8.8 nM; on human D2 receptor it was 1540 nM.
In the case of `CN(C)S(=O)(=O)N[C@H]1CC[C@H](CCN2CCN(c3nccc4occc34)CC2)CC1` [Example 17, N′-(trans-4{[4-(furo[3,2-c]pyridin-4-yl)-piperazin-1-yl]-ethyl}cyclohexyl)-N,N-dimethylsulfamide], the Ki stood at 33 nM on human D3 receptor, 5.3 nM on human 5-HT2A receptor (setting [1]) and 539 nM on human D2 receptor.
For `O=C(N[C@H]1CC[C@H](CCN2CCN(c3nccc4occc34)CC2)CC1)c1ccnc2ccccc12` [Example 29, Quinoline-4-carboxylic acid {trans-4-[2-(4-furo[3,2-c]pyridin-4-yl-piperazin-1-yl)-ethyl]-cyclohexyl}-amide], the Ki on human D3 receptor is 23.2 nM; at human 5-HT2A receptor (setting [1]) it was 5.3 nM; on human D2 receptor, 461 nM.
Taken in the same sequence, the figures for `O=C(CO)N[C@H]1CC[C@H](CCN2CCN(c3nccc4sccc34)CC2)CC1` [Example 27, 2-Hydroxy-N-{trans-4-[2-(4-thieno[3,2-c]pyridin-4-yl-piperazin-1-yl)-ethyl]-cyclohexyl}-acetamide] were 1.4 nM, 1.4 nM and 218 nM.
`CC(=O)N[C@H]1CC[C@H](CCN2CCN(c3nccc4sccc34)CC2)CC1` [Example 15, N-{trans-4-[2-(4-Thieno[3,2-c]pyridin-4-yl-piperazin-1-yl)-ethyl]-cyclohexyl}-acetamide]: the Ki at human D3 receptor is 1.9 nM; at human 5-HT2A receptor it was 3.3 nM; on human D2 receptor it was 119 nM.
For the molecule `CS(=O)(=O)N[C@H]1CC[C@H](CCN2CCN(c3nccc4occc34)CC2)CC1` [Example 14, N-{trans-4-[2-(4-Furo[3,2-c]pyridin-4-yl-piperazin-1-yl)-ethyl}-cyclohexyl]-methanesulfonamide], the Ki worked out at 34.1 nM at human D3 receptor, 6.8 nM on human 5-HT2A receptor (setting [1]) and 866 nM at human D2 receptor.
Take `O=C(CCO)N[C@H]1CC[C@H](CCN2CCN(c3nccc4occc34)CC2)CC1` [Example 6, N-{trans-4-[2-(4-Furo[3,2-c]pyridin-4-yl-piperazin-1-yl)-ethyl]-cyclohexyl}-3-hydroxy-propionamide]: the figures for the Ki on human D3 receptor, on human 5-HT2A receptor (setting [1]) and at human D2 receptor were 19.9 nM, 10.3 nM and 959 nM, respectively.
`COCC(=O)N[C@H]1CC[C@H](CCN2CCN(c3nccc4occc34)CC2)CC1` [Example 8, N-{trans-4-[2-(4-Furo[3,2-c]pyridin-4-yl-piperazin-1-yl)-ethyl]-cyclohexyl}-2-methoxy-acetamide]: the figures for the Ki on human D3 receptor, on human 5-HT2A receptor (setting [1]) and at human D2 receptor were 77.2 nM, 4.4 nM and 1160 nM, respectively.
Taken in the same sequence, the figures for `COCC(=O)N[C@H]1CC[C@H](CCN2CCN(c3nccc4sccc34)CC2)CC1` [Example 22, 2-Methoxy-N-{trans-4-[2-(4-thieno[3,2-c]pyridin-4-yl-piperazin-1-yl)-ethyl]-cyclohexyl}-acetamide] were 3.2 nM, 2.2 nM and 220 nM.
Consider `CCC(=O)N[C@H]1CC[C@H](CCN2CCN(c3nccc4occc34)CC2)CC1` [Example 4, N-{trans-4-[2-(4-Furo[3,2-c]pyridin-4-yl-piperazin-1-yl)-ethyl]-cyclohexyl}-propionamide], for which the Ki at human D3 receptor worked out at 11.8 nM; at human 5-HT2A receptor it was 6.5 nM; at human D2 receptor, 780 nM.
`CO[C@H]1CC[C@H](CC(=O)N[C@H]2CC[C@H](CCN3CCN(c4nccc5sccc45)CC3)CC2)CC1` [Example 20, 2-(trans-4-Methoxy-cyclohexyl)-N-{trans-4-[2-(4-thieno[3,2-c]pyridin-4-yl-piperazin-1-yl)-ethyl]-cyclohexyl}-acetamide]: the Ki at human D3 receptor is 3 nM; on human 5-HT2A receptor (setting [1]), 2.5 nM; at human D2 receptor it was 302 nM.
With `CCOCC(=O)N[C@H]1CC[C@H](CCN2CCN(c3nccc4occc34)CC2)CC1` [Example 12, 2-Ethoxy-N-{trans-4-[2-(4-furo[3,2-c]pyridin-4-yl-piperazin-1-yl)-ethyl]-cyclohexyl}-acetamide], the Ki was determined as 150 nM at human D3 receptor, 7.4 nM on human 5-HT2A receptor (setting [1]) and 996 nM on human D2 receptor.
Consider `O=C(N[C@H]1CC[C@H](CCN2CCN(c3nccc4occc34)CC2)CC1)C1CC1` [Example 13, Cyclopropanecarboxylic acid {trans-4-[2-(4-furo[3,2-c]pyridin-4-yl-piperazin-1-yl)-ethyl]-cyclohexyl}-amide], for which the Ki on human D3 receptor was 21.8 nM; at human 5-HT2A receptor (setting [1]), 4.4 nM; at human D2 receptor it was 261 nM.
